In ChEMBL document CHEMBL5321209, “Design, synthesis of novel benzimidazole derivatives as ENL inhibitors suppressing leukemia cells viability via downregulating the expression of MYC” (Eur J Med Chem, 2023):

Assays:
[1] = target: T1, Protein ENL (Homo sapiens) (UniProt Q03111); conditions: dose 111.0 nM, time 45.0 min
T1 sequence (whole entry): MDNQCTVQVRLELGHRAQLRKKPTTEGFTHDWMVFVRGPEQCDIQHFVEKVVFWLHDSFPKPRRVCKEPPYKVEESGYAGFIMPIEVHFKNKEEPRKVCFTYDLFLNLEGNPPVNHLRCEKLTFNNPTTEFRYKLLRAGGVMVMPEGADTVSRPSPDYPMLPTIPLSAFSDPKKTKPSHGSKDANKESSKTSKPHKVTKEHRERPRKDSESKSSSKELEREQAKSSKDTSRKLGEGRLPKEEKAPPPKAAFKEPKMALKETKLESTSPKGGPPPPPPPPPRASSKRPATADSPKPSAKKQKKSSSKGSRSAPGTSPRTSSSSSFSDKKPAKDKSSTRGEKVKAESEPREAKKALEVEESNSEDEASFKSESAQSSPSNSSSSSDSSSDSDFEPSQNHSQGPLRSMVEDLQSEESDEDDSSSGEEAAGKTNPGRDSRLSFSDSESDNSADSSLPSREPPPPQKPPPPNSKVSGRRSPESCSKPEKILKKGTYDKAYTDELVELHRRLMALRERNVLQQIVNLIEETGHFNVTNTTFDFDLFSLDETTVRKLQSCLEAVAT

Protein ENL [2] = target: T2, Protein ENL (Homo sapiens, UniProt Q03111); assay: Inhibition of C-terminal 6xHis-tagged ENL YEATS domain (1 to 148 residues) (unknown origin) expressed in Escherichia coli BL21(DE3) cells using biotin-H3K27ace as substrate incubated for 45 mins by alpha screen assay
T2 sequence (Q03111 whole entry): T1 sequence (whole entry)

[3] = target: T1, Protein ENL (Homo sapiens); conditions: dose 333.0 nM, time 45.0 min
Protein ENL [4] = target: T2, Protein ENL; assay: Binding affinity to ENL YEATS domain (unknown origin) assessed as dissociation constant by ITC assay
[5] = AUC (0 to t) in BALB/c mouse at 30 mg/kg, po measured after 0.5 to 24 hrs by LC-MS/MS assay; format: ADME, organism-based; design: dose 30 mg/kg, time 0.5-24 hrs, route po; conditions: in vivo
[6] = Tmax in BALB/c mouse at 30 mg/kg, po measured after 0.5 to 24 hrs by LC-MS/MS assay; format: ADME, organism-based; conditions: in vivo, time 0.5-24 hrs
MOLM-13 = assay: Antiproliferative activity against human MOLM-13 cells assessed as inhibition of cell growth measured after 72 hrs by Cell Titer-Glo luminescent assay; format: functional, cell-based; conditions: MOLM-13, 72 h
[7] = MRT (0 to infinity) in BALB/c mouse at 30 mg/kg, po measured after 0.5 to 24 hrs by LC-MS/MS assay; format: ADME, organism-based; conditions: in vivo, time 0.5-24 hrs
[8] = target: T1, Protein ENL (Homo sapiens); conditions: dose 12.5 µM
Description: Binding affinity to C-terminal 6xHis-tagged ENL YEATS domain (1 to 148 residues) (unknown origin) expressed in Escherichia coli BL21(DE3) cells assessed as thermal stability by measuring change in melting temperature at 12.5 uM by SYPRO dye-based thermal shift assay

[9] = Cmax in BALB/c mouse at 30 mg/kg, po measured after 0.5 to 24 hrs by LC-MS/MS assay; format: ADME, organism-based; design: dose 30 mg/kg, time 0.5-24 hrs, route po; conditions: in vivo
[10] = Half life in BALB/c mouse at 30 mg/kg, po measured after 0.5 to 24 hrs by LC-MS/MS assay; format: ADME, organism-based; conditions: in vivo, time 0.5-24 hrs
[11] = AUC (0 to infinity) in BALB/c mouse at 30 mg/kg, po measured after 0.5 to 24 hrs by LC-MS/MS assay; format: ADME, organism-based; design: time lower 0.5 hrs, dose 30 mg/kg, time upper 24 hrs, route po; conditions: in vivo
[12] = target: T1, Protein ENL (Homo sapiens); conditions: dose 50.0 µM
MV4-11 = assay: cells; conditions: Homo sapiens, MV4-11, 72 h
Description: Antiproliferative activity against human MV4-11 cells assessed as inhibition of cell growth measured after 72 hrs by Cell Titer-Glo luminescent assay

[13] = target: T1, Protein ENL (Homo sapiens); conditions: dose 6.3 µM
Description: Binding affinity to C-terminal 6xHis-tagged ENL YEATS domain (1 to 148 residues) (unknown origin) expressed in Escherichia coli BL21(DE3) cells assessed as thermal stability by measuring change in melting temperature at 6.3 uM by SYPRO dye-based thermal shift assay

[14] = target: T1, Protein ENL (Homo sapiens); conditions: dose 25.0 µM

Compound: CCCCn1ncc2cc(C(=O)Nc3ccc4[nH]c(CN5CCC[C@@H]5C)nc4c3)ccc21
- inhibition [1]: 98%
- IC50 (Protein ENL [2]): 0.017 µM
- inhibition [3]: 100%

Compound: C[C@H]1CCCN1Cc1nc2cc(NC(=O)c3ccc4c5ccccc5n(C)c4c3)ccc2[nH]1
- inhibition [1]: 85.4%
- IC50 (Protein ENL [2]): 0.0722 µM
- inhibition [3]: 96.5%

Compound: C[C@@H]1NC(=O)[C@H]([C@H](C)O)NC(=O)[C@@H](NC(=O)OCc2ccccc2)CCCCNC(=N)NCCC[C@H](C(=O)N[C@@H](CCCCNC(=O)c2cnco2)C(N)=O)NC1=O
- Kd (Protein ENL [4]): 14.1 µM

Compound: Cc1noc2ccc(C(=O)Nc3ccc4[nH]c(CN5CCC[C@@H]5C)nc4c3)cc12
- inhibition [1]: 87.3%
- IC50 (Protein ENL [2]): 0.0488 µM
- inhibition [3]: 99.3%

Compound: Cc1ccccc1C(=O)NCCn1ncc2cc(C(=O)Nc3ccc4[nH]c(CN5CCC[C@@H]5C)nc4c3)ccc21
- inhibition [1]: 68.4%
- IC50 (Protein ENL [2]): 0.0354 µM
- inhibition [3]: 96.1%

Compound: Cc1cccc2c(=O)n(C)c3ccc(C(=O)Nc4ccc5[nH]c(CN6CCC[C@@H]6C)nc5c4)cc3c12
- inhibition [1]: 63.2%
- IC50 (Protein ENL [2]): 0.0464 µM
- inhibition [3]: 95.6%

Compound: C[C@H]1CCCN1Cc1nc2cc(NC(=O)c3ccc4c5ccccc5c(=O)n(C)c4c3)ccc2[nH]1
- inhibition [1]: 99.2%
- IC50 (Protein ENL [2]): 0.0318 µM
- inhibition [3]: 100%

Compound: C[C@H]1CCCN1Cc1nc2cc(NC(=O)c3ccc4nn(CCNC(=O)OC(C)(C)C)cc4c3)ccc2[nH]1
- inhibition [1]: 56%
- IC50 (Protein ENL [2]): 0.0379 µM
- inhibition [3]: 99.1%

Compound: C[C@H]1CCCN1Cc1nc2cc(NC(=O)c3ccc4nn(CCN)cc4c3)ccc2[nH]1
- inhibition [1]: 84.1%
- IC50 (Protein ENL [2]): 0.0172 µM
- inhibition [3]: 98.4%

Compound: C[C@H]1CCCN1Cc1nc2cc(NC(=O)c3ccc4c(cnn4CCN4CC5OC(C)(C)OC5C4C4COC(C)(C)O4)c3)ccc2[nH]1 (stereo partly specified)
- inhibition [1]: 89%
- IC50 (Protein ENL [2]): 0.0564 µM
- inhibition [3]: 99.6%

Compound: CCCCn1cc2cc(C(=O)Nc3ccc4[nH]c(CN5CCC[C@@H]5C)nc4c3)ccc2n1
- inhibition [1]: 98.4%
- IC50 (Protein ENL [2]): 0.0353 µM
- inhibition [3]: 100%

Compound: C[C@H]1CCCN1Cc1nc2cc(NC(=O)c3ccc4nn(C5CCCC5)cc4c3)ccc2[nH]1
- inhibition [1]: 51%
- IC50 (Protein ENL [2]): 0.0702 µM
- inhibition [3]: 96.1%

Compound: CCn1cc2cc(C(=O)Nc3ccc4[nH]c(CN5CCC[C@@H]5C)nc4c3)ccc2n1
- inhibition [1]: 82.4%
- IC50 (Protein ENL [2]): 0.0367 µM
- inhibition [3]: 99.7%

Compound: C[C@H]1CCCN1Cc1nc2cc(NC(=O)c3ccc4c(cnn4C)c3)ccc2[nH]1
- AUC(0-t) [5]: 0.0598 µg·h/mL
- Tmax [6]: 30 min
- IC50 (MOLM-13): 74.7 µM
- MRT inf [7]: 60 min
- ΔTm [8]: 2.2 °C
- Cmax [9]: 0.0336 µg/mL
- half-life [10]: 30 min
- inhibition [1]: 99.8%
- AUC(0-inf) [11]: 0.061 µg·h/mL
- ΔTm [12]: 4.3 °C
- IC50 (MV4-11): 35 µM
- ΔTm [13]: 1.4 °C
- inhibition [3]: 99.7%
- ΔTm [14]: 3.1 °C
